Assay results reported in PubChem BioAssay (NCI).
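Cultured in 96-well plates, cells were exposed to test compound for 48 hours across five concentrations. GI50 = concentration required for 50% inhibition of growth. TGI denotes the concentration required for complete inhibition of growth.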

Tests used:
Experiment in all cases: NCI-60 cell line screen, 48 h
[1] = test system: SF-268 CNS
[2] = test system: NCI-H23 lung
[3] = test system: U251 CNS
[4] = test system: MOLT-4 leukemia
[5] = test system: OVCAR-5 ovarian
[6] = test system: NCI-H522 lung
[7] = test system: UO-31 renal
[8] = test system: TK-10 renal
[9] = test system: PC-3 prostate
[10] = test system: MDA-MB-231 breast
[11] = test system: EKVX NSCLC
[12] = test system: A549 NSCLC
[13] = test system: SNB-75 CNS
[14] = test system: A498 renal
[15] = test system: MALME-3M melanoma
[16] = test system: IGROV1 ovarian
[17] = test system: KM12 colon
[18] = test system: HS 578T breast
[19] = test system: HCT-15 colon
[20] = test system: OVCAR-4 ovarian
[21] = test system: OVCAR-8 ovarian
[22] = test system: SNB-19 CNS
[23] = test system: SK-MEL-2 melanoma
[24] = test system: T-47D breast
[25] = test system: SK-MEL-28 melanoma
[26] = test system: CAKI-1 renal
[27] = test system: HL-60(TB) leukemia
[28] = test system: M14 melanoma
[29] = test system: HT29 colon
[30] = test system: HCC-2998 colon
[31] = test system: NCI-H226 lung
[32] = test system: ACHN renal
[33] = test system: RXF 393 renal
[34] = test system: SK-OV-3 ovarian
[35] = test system: RPMI-8226 leukemia
[36] = test system: SR leukemia
[37] = test system: SK-MEL-5 melanoma
[38] = test system: NCI-H460 lung
[39] = test system: CCRF-CEM leukemia
[40] = test system: COLO 205 colon
[41] = test system: LOX IMVI melanoma
[42] = test system: BT-549 breast
[43] = test system: HCT-116 colon
[44] = test system: OVCAR-3 ovarian
[45] = test system: K-562 leukemia
[46] = test system: SN12C renal
[47] = test system: DU-145 prostate
[48] = test system: MDA-MB-435
[49] = test system: UACC-62 melanoma
[50] = test system: SW-620 colon
[51] = test system: UACC-257 melanoma
[52] = test system: MCF7 breast
[53] = test system: HOP-92 NSCLC
[54] = test system: SF-539 CNS
[55] = test system: 786-0 renal
[56] = test system: SF-295 CNS
[57] = test system: NCI/ADR-RES ovarian
[58] = test system: HOP-62 NSCLC

`CCOC(=O)/C=C/c1ccc([N+](=O)[O-])o1` showed a GI50 [1] of 5.38 µM, a TGI [1] of 40.5 µM and a GI50 [2] of 4.12 µM. The TGI [2] was 18.4 µM, the GI50 [3] was 14.7 µM and the TGI [3] was 50.4 µM. It also gave a GI50 [4] of 2.76 µM, a TGI [4] of 13 µM and a GI50 [5] of 2.95 µM. The TGI [5] was 8.13 µM, the GI50 [6] was 1.34 µM and the TGI [6] was 3.24 µM. The GI50 [7] was 1.69 µM, the TGI [7] was 3.42 µM and the GI50 [8] was 4.7 µM. The TGI [8] was 16.3 µM, the GI50 [9] was 11.8 µM and the TGI [9] was 39.9 µM. It also gave a GI50 [10] of 3.51 µM, a TGI [10] of 11.6 µM and a GI50 [11] of 24.7 µM. It also gave a TGI [11] of 80.7 µM, a GI50 [12] of 25.3 µM and a TGI [12] of over 100 µM. For the same compound, the GI50 [13] was 4.6 µM, the TGI [13] was 94 µM and the GI50 [14] was 21 µM. For the same compound, the TGI [14] was 48.8 µM, the GI50 [15] was 2.32 µM and the TGI [15] was 4.99 µM. For the same compound, the GI50 [16] was 10.9 µM, the TGI [16] was 24.8 µM and the GI50 [17] was 12.6 µM. It also gave a TGI [17] of 27.6 µM, a GI50 [18] of 5.74 µM and a TGI [18] of 53.9 µM. The GI50 [19] was 2.03 µM, the TGI [19] was 7.53 µM and the GI50 [20] was 4.93 µM. For the same compound, the TGI [20] was 20.4 µM, the GI50 [21] was 2.91 µM and the TGI [21] was 12.3 µM. The GI50 [22] was 29 µM, the TGI [22] was over 100 µM and the GI50 [23] was 11.3 µM. For the same compound, the TGI [23] was 36.8 µM, the GI50 [24] was 5.55 µM and the TGI [24] was 25.9 µM. For the same compound, the GI50 [25] was 2.08 µM, the TGI [25] was 5.07 µM and the GI50 [26] was 2.06 µM. It also gave a TGI [26] of 4.38 µM, a GI50 [27] of 2.38 µM and a TGI [27] of 6.78 µM. It also gave a GI50 [28] of 2.71 µM, a TGI [28] of 8.74 µM and a GI50 [29] of 3.71 µM. It also gave a TGI [29] of 15.1 µM, a GI50 [30] of 11.2 µM and a TGI [30] of 24.2 µM. It also gave a GI50 [31] of 2.02 µM, a TGI [31] of 4.25 µM and a GI50 [32] of 1.75 µM. For the same compound, the TGI [32] was 3.8 µM, the GI50 [33] was 1.82 µM and the TGI [33] was 3.86 µM. It also gave a GI50 [34] of 22.4 µM, a TGI [34] of over 100 µM and a GI50 [35] of 3.18 µM. It also gave a TGI [35] of 12.2 µM, a GI50 [36] of 1.64 µM and a TGI [36] of 26.1 µM. For the same compound, the GI50 [37] was 3.81 µM, the TGI [37] was 15.2 µM and the GI50 [38] was 18.1 µM. For the same compound, the TGI [38] was 38.9 µM, the GI50 [39] was 0.518 µM and the TGI [39] was 10.2 µM. It also gave a GI50 [40] of 2.26 µM, a TGI [40] of 5.69 µM and a GI50 [41] of 1.55 µM. It also gave a TGI [41] of 3.71 µM, a GI50 [42] of 3.43 µM and a TGI [42] of 11.4 µM. For the same compound, the GI50 [43] was 1.62 µM, the TGI [43] was 5.62 µM and the GI50 [44] was 3.13 µM. For the same compound, the TGI [44] was 9.21 µM, the GI50 [45] was 2.97 µM and the TGI [45] was 12.9 µM. The GI50 [46] was 3.03 µM, the TGI [46] was 10.8 µM and the GI50 [47] was 3.17 µM. The TGI [47] was 11.1 µM, the GI50 [48] was 2.1 µM and the TGI [48] was 4.67 µM. The GI50 [49] was 1.71 µM, the TGI [49] was 4.36 µM and the GI50 [50] was 2.38 µM. It also gave a TGI [50] of 7.16 µM, a GI50 [51] of 2.74 µM and a TGI [51] of 11.4 µM. For the same compound, the GI50 [52] was 2.74 µM, the TGI [52] was 17.2 µM and the GI50 [53] was 2.66 µM. It also gave a TGI [53] of 6.36 µM, a GI50 [54] of 2.7 µM and a TGI [54] of 7.4 µM. For the same compound, the GI50 [55] was 2.13 µM, the TGI [55] was 4.67 µM and the GI50 [56] was 19.7 µM. For the same compound, the TGI [56] was 48.2 µM.

With `COc1ccc(C(=O)Cn2c(C(=O)c3ccc(Cl)cc3)nc(-c3ccccc3)c2-c2ccccc2)cc1` the GI50 [1] was over 100 µM, the TGI [1] was over 100 µM and the GI50 [2] was over 100 µM. The TGI [2] was over 100 µM, the GI50 [3] was 73 µM and the TGI [3] was over 100 µM. It also gave a GI50 [4] of over 100 µM, a TGI [4] of over 100 µM and a GI50 [5] of over 100 µM. It also gave a TGI [5] of over 100 µM, a GI50 [6] of over 100 µM and a TGI [6] of over 100 µM. The GI50 [7] was over 100 µM, the TGI [7] was over 100 µM and the GI50 [8] was 46.5 µM. For the same compound, the TGI [8] was over 100 µM, the GI50 [9] was over 100 µM and the TGI [9] was over 100 µM. The GI50 [10] was 44 µM, the TGI [10] was over 100 µM and the GI50 [11] was over 100 µM. For the same compound, the TGI [11] was over 100 µM, the GI50 [12] was 60 µM and the TGI [12] was over 100 µM. The GI50 [13] was 85.8 µM, the TGI [13] was over 100 µM and the GI50 [14] was 34.9 µM. It also gave a TGI [14] of over 100 µM, a GI50 [15] of over 100 µM and a TGI [15] of over 100 µM. The GI50 [16] was 67.1 µM, the TGI [16] was over 100 µM and the GI50 [17] was over 100 µM. The TGI [17] was over 100 µM, the GI50 [18] was 44.1 µM and the TGI [18] was over 100 µM. It also gave a GI50 [19] of over 100 µM, a TGI [19] of over 100 µM and a GI50 [20] of 94.2 µM. For the same compound, the TGI [20] was over 100 µM, the GI50 [21] was over 100 µM and the TGI [21] was over 100 µM. It also gave a GI50 [22] of 78.3 µM, a TGI [22] of over 100 µM and a GI50 [23] of over 100 µM. The TGI [23] was over 100 µM, the GI50 [24] was over 100 µM and the TGI [24] was over 100 µM. It also gave a GI50 [25] of over 100 µM, a TGI [25] of over 100 µM and a GI50 [57] of over 100 µM. It also gave a TGI [57] of over 100 µM, a GI50 [26] of 31.2 µM and a TGI [26] of over 100 µM. It also gave a GI50 [27] of over 100 µM, a TGI [27] of over 100 µM and a GI50 [28] of over 100 µM. The TGI [28] was over 100 µM, the GI50 [29] was over 100 µM and the TGI [29] was over 100 µM. For the same compound, the GI50 [30] was over 100 µM, the TGI [30] was over 100 µM and the GI50 [31] was over 100 µM. The TGI [31] was over 100 µM, the GI50 [32] was 34.3 µM and the TGI [32] was over 100 µM. It also gave a GI50 [33] of 23.6 µM, a TGI [33] of over 100 µM and a GI50 [34] of 60.1 µM. The TGI [34] was over 100 µM, the GI50 [35] was over 100 µM and the TGI [35] was over 100 µM. For the same compound, the GI50 [36] was over 100 µM, the TGI [36] was over 100 µM and the GI50 [37] was over 100 µM. It also gave a TGI [37] of over 100 µM, a GI50 [38] of over 100 µM and a TGI [38] of over 100 µM. For the same compound, the GI50 [40] was over 100 µM, the TGI [40] was over 100 µM and the GI50 [41] was over 100 µM. For the same compound, the TGI [41] was over 100 µM, the GI50 [42] was over 100 µM and the TGI [42] was over 100 µM. For the same compound, the GI50 [43] was over 100 µM, the TGI [43] was over 100 µM and the GI50 [44] was over 100 µM. The TGI [44] was over 100 µM, the GI50 [45] was over 100 µM and the TGI [45] was over 100 µM. It also gave a GI50 [46] of over 100 µM, a TGI [46] of over 100 µM and a GI50 [47] of over 100 µM. It also gave a TGI [47] of over 100 µM, a GI50 [48] of over 100 µM and a TGI [48] of over 100 µM. The GI50 [49] was over 100 µM, the TGI [49] was over 100 µM and the GI50 [58] was over 100 µM. It also gave a TGI [58] of over 100 µM, a GI50 [50] of over 100 µM and a TGI [50] of over 100 µM. For the same compound, the GI50 [51] was over 100 µM, the TGI [51] was over 100 µM and the GI50 [52] was over 100 µM. For the same compound, the TGI [52] was over 100 µM, the GI50 [53] was 7.43 µM and the TGI [53] was 83.1 µM. The GI50 [54] was 52.3 µM, the TGI [54] was over 100 µM and the GI50 [55] was 79.6 µM. For the same compound, the TGI [55] was over 100 µM, the GI50 [56] was 91 µM and the TGI [56] was over 100 µM.
